Measured values published in EP1584686A1, “Progenitor cell preservation factors and related methods and products” (ImClone Systems Incorporated, priority 1999, dated 2001).
Blank lines part the entries; values can stand above or below the compound they belong to.

Experiments:
mice = settings: single dose 150 mg/kg; Lerner and Harrison 1990; cited from earlier work
Dl-FRIL = target: T1, Dl-FRIL (Lablab purpureus, UniProt Q9ZTA9); settings: Mo et al., Glycobiology 9:173-179,1999; cited from earlier work
T1 sequence (Q9ZTA9 9-272): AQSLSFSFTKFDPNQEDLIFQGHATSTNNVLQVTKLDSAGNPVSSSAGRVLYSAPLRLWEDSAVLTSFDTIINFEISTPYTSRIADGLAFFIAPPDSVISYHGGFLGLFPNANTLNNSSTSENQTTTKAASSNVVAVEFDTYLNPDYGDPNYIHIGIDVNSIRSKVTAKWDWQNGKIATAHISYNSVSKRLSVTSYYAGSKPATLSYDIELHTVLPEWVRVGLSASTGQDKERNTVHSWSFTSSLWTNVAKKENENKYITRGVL

[1] = target: FLT3 receptor on FLT3-transfected 3T3 cells (chimeric murine FLT3/human Fms receptor or full length human receptor, not told apart); test: cell-based or functional assay

Compound: O=c1[nH]cc(F)c(=O)[nH]1 [5-FU, 5-fluorouracil]
reduction of bone marrow cellularity (mice): > 90%

Compound: OC[C@H]1O[C@H](O[C@H]2O[C@H](CO)[C@@H](O)[C@H](O)[C@H]2O)[C@H](O)[C@@H](O)[C@@H]1O [α,α-trehalose]
potency greater than mannose (Dl-FRIL): 3.6 fold

Specific Activity (u/mg) in the Flt3 3T3 assay, after the Superdex 75 step [1]: 244000 units/mg
Compound: Pv-FRIL (Phaseolus vulgaris FRIL), native, purified from PHA-LCM or from red kidney bean extract
